Results published in patent US8815846B2, “Family of antichagasics derived from imidazo[4,5-C][1,2,6]thiadiazine 2,2-dioxide” (Universidad de la Republica de Uruguay, priority 2009, dated 2014).
pIC50: −log10 of the molar value. Like-named read-outs stand apart in the source and are kept apart here.

How the values were obtained:
[1] = test system: Trypanosoma cruzi, epimastigote form of the Tulahuen 2 strain; experiment: In vitro growth inhibition of Trypanosoma cruzi epimastigotes (Tulahuen 2 strain), absorbance at 600 nm; type: cell-based; conditions: 120 h, absorbance on day 5, duplicate, error ±3%, read-out: IC50 Anti-T. cruzi activity of the Tulahuen 2 strain
Method: The studies of the antichagasic activity were performed in vitro against Trypanosoma cruzi, on the epimastigote form of the Tulahuen 2 strains, (from the strains collection of the Biological Physicochemistry Laboratory, of the Institute of Biological Chemistry, of the Faculty of Science, University of the Republica Oriental of Uruguay, Uruguay). Said strains were cultured at 28° C. in an axenic medium (BHI-tryptose), complemented with 5% of fetal bovine serum. […] The growth of the parasite was followed during 11 days by culture absorbance measurements at 600 nm, proportional to the number of cells present. Before inoculation, a pre-established quantity of each compound of the invention to test was incorporated in the medium, dissolved in DMSO (dimethylsulfoxide). The final concentration of DMSO in the culture medium never exceeded 0.4%, using a blank (absence of product or compound of the invention) with 0.4% DMSO. […] The growth PI was calculated as follows: PI={1−[(Ap−Aop)/(Ac−Aoc)]}×100 where: • Ap=A600 nm of the culture containing the product on day 5. • Aop=A600 nm of the culture containing the product after addition of the culture (day 0). • Ac=A600 nm of the blank on day 5. • Aoc=A600 nm of the blank on day 0. The A600 nm taken on day 5 corresponds to the late exponential phase in the culture growth curve. The determination of the IC50 (half maximal inhibitory concentration) was performed following the growth of the parasite in the absence (control) and presence of increasing concentrations of the corresponding products. The absorbance was measured on day 5 and it was related to the control.

cruzipain = cruzipain (Trypanosoma cruzi, UniProt P25779); experiment: Cruzipain enzyme inhibition (chromogenic substrate Bz-Pro-Phe-Arg-p-NA, absorbance 410 nm); type: biochemical; conditions: 10 min preincubation, pH 7.6, read-out: % Inhibition CP (cruzipain); for inhibition at 25 µM: 25 μM inhibitor; for inhibition at 50 µM: 50 μM inhibitor; for inhibition at 100 µM: 100 μM inhibitor
Method: The capacity of inhibiting the cruzipain enzyme was performed according to the protocol detailed below: cruzipain (10 μL) was incubated with a reaction mixture containing a final concentration of 50 mM of Tris-HCl buffer solution, pH 7.6, 10 mM β-mercaptoethanol and 25, 50 or 100 μM of the inhibitor during 10 min at ambient temperature. Later the chromogenic substrate Bz-Pro-Phe-Arg-p-NA was aggregated at a final concentration of 150 μM, and the increase in absorbance at 410 nm was followed for 5 min at temperature in a Beckman DU 650 spectrophotometer. The inhibitors were added dissolved in DMSO and the controls (100% of enzymatic activity) contained the same concentration of solvent. The final volume of the assay is 100 μL. The values represented at least three independent assays. The data obtained for some of the derivatives in table 3 are shown by way of example.

J774 murine macrophages = experiment: Non-specific cytotoxicity against J774 murine macrophages (MTT/formazan); type: cell-based; conditions: for pIC50: Mus musculus, read-out: IC50 concentration of compound which reduces the growth of macrophages by 50%; for PC J774 macrophages (%) (percentage of non-specific cytotoxicity): MTT
Method: The cellular viability was determined based on the conservation of mitochondrial activity by the MTT/formazan method.

[2] = J774 murine macrophages, 48 hours, average of two evaluations

Chain of cruzipain (P25779 123-467): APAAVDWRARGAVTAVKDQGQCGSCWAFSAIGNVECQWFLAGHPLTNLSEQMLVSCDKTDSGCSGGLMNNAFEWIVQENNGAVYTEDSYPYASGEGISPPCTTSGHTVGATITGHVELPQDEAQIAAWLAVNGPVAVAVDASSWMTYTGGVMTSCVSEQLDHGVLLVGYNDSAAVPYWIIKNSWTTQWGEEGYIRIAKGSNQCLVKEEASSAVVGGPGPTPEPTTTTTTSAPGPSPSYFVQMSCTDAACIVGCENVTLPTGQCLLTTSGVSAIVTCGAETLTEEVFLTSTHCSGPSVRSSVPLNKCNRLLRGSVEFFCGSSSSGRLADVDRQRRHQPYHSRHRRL

Structure (SMILES): NC1=NS(=O)(=O)Nc2nc(-c3ccccc3F)[nH]c21
- pIC50 [1]: 4.69

Structure (SMILES): NC1=NS(=O)(=O)Nc2nc(-c3ccsc3)[nH]c21
- pIC50 [1]: 4.65

Structure (SMILES): CN(C)c1ccc(-c2nc3c([nH]2)C(N)=NS(=O)(=O)N3)cc1
- pIC50 [1]: 4.55

Structure (SMILES): NC1=NS(=O)(=O)Nc2nc(C3CCCC3)[nH]c21
- pIC50 [1]: 4.54

Structure (SMILES): CN1c2nc(-c3ccsc3)[nH]c2C(N)=NS1(=O)=O
- pIC50 [1]: 4.58

Structure (SMILES): CCc1nc2c([nH]1)C(N)=NS(=O)(=O)N2
- pIC50 [1]: 4.55

Structure (SMILES): NC1=NS(=O)(=O)N(Cc2ccccc2)c2nc(-c3ccccc3)[nH]c21
- pIC50 [1]: 4.53

Structure (SMILES): NC1=NS(=O)(=O)N(Cc2ccccc2)c2nc(C3CCCCC3)n(Cc3ccc(Cl)cc3)c21
- inhibition at 25 µM (cruzipain): 10%
- inhibition at 50 µM (cruzipain): 39%
- inhibition at 100 µM (cruzipain): 40%

Structure (SMILES): NC1=NS(=O)(=O)N(Cc2ccc(Cl)cc2)c2nc(C3CCCCC3)n(Cc3ccc(Cl)cc3)c21
- inhibition at 100 µM (cruzipain): 31%

Structure (SMILES): NC1=NS(=O)(=O)N(Cc2ccc(Cl)cc2)c2nc(C3CCCCC3)[nH]c21
- inhibition at 25 µM (cruzipain): 0%
- inhibition at 50 µM (cruzipain): 7%
- inhibition at 100 µM (cruzipain): 28%

Structure (SMILES): O=C(Cn1ccnc1[N+](=O)[O-])NCc1ccccc1 [Benznidazole, N-benzyl-2-nitro-1-imidazole acetamide, reference compound]
- pIC50 [1]: 5.13

Structure (SMILES): NC1=NS(=O)(=O)Nc2nc(C3CCCCC3)[nH]c21 [Example 1a, 4-amino-6-cyclohexyl-1H,5H-imidazo[4,5-c][1,2,6]thiadiazine 2,2-dioxide]
- melting point: 263 to 265 °C

Structure (SMILES): NC1=NS(=O)(=O)Nc2nc(C3CCOC3)[nH]c21 (stereo not shown) [Example 1b, 4-amino-6-(3-tetrahydrofuryl)-1H,5H-imidazo[4,5-c][1,2,6]thiadiazine 2,2-dioxide]
- melting point: 238 to 240 °C

Structure (SMILES): NC1=NS(=O)(=O)Nc2nc(CCc3ccccc3)[nH]c21 [Example 1c, 4-amino-6-phenethyl-1H,5H-imidazo[4,5-c][1,2,6]thiadiazine 2,2-dioxide]
- melting point: 190 to 192 °C

Structure (SMILES): NC1=NS(=O)(=O)N(Cc2ccccc2)c2nc(-c3ccccc3)n(Cc3ccccc3)c21 [Example 3a, 4-amino-1,5-dibenzyl-6-phenylimidazo[4,5-c][1,2,6]thiadiazine 2,2-dioxide]
- melting point: 238 to 240 °C

Structure (SMILES): NC1=NS(=O)(=O)N(Cc2ccccc2)c2nc(-c3ccccc3)n(Cc3ccc(Cl)cc3)c21 [Example 3b, 4-amino-1-benzyl-5-(4-chlorobenzyl)-6-phenylimidazo[4,5-c][1,2,6]thiadiazine 2,2-dioxide]
- melting point: 245 to 247 °C

Structure (SMILES): CC(=O)N1CCN(c2ccc(OCC3COC(Cn4ccnc4)(c4ccc(Cl)cc4Cl)O3)cc2)CC1 (stereo not shown) [Ketoconazole, reference compound]
- pIC50 (J774 murine macrophages; J774, 48 h): > 4.00

Structure (SMILES): CC1CS(=O)(=O)CCN1N=Cc1ccc([N+](=O)[O-])o1 (stereo not shown) [Nifurtimox, 4-([5 nitrofurfurylidene]-amino)-3-methylthiomorpholine-1,1-dioxide, reference compound]
- pIC50 [1]: 5.11
- pIC50 (J774 murine macrophages; J774, 48 h): 3.50

Structure (SMILES): CN(C/C=C/C#CC(C)(C)C)Cc1cccc2ccccc12 [Terbinafine, reference compound]
- PC J774 macrophages (%) (percentage of non-specific cytotoxicity) (J774 murine macrophages; 100 μM compound, 48 hours): 10.0%
- PC J774 macrophages (%) (percentage of non-specific cytotoxicity) (J774 murine macrophages; 200 μM compound, 48 hours): 26.0%
- PC J774 macrophages (%) (percentage of non-specific cytotoxicity) (J774 murine macrophages; 400 μM compound, 48 hours): 60.0%
- pIC50 (J774 murine macrophages; [2]): 3.47

Structure (SMILES): NC1=NS(=O)(=O)Nc2nc(Cc3ccccc3)[nH]c21 [drawing 7]
- pIC50 [1]: 4.79

Structure (SMILES): CN1c2nc(-c3ccccc3)[nH]c2C(N)=NS1(=O)=O [drawing 8]
- pIC50 [1]: 4.78

Structure (SMILES): NC1=NS(=O)(=O)N(Cc2ccccc2)c2nc(-c3ccccc3)n(Cc3ccccc3)c21 [drawing 10]
- pIC50 [1]: 5.35

Structure (SMILES): NC1=NS(=O)(=O)Nc2nc(C3CCCCC3)[nH]c21 [drawing 11]
- pIC50 [1]: 4.90

Structure (SMILES): NC1=NS(=O)(=O)Nc2nc(C3CCOC3)[nH]c21 (stereo not shown) [drawing 12]
- pIC50 [1]: 4.69

Structure (SMILES): NC1=NS(=O)(=O)Nc2nc(CCc3ccccc3)[nH]c21 [drawing 14]
- pIC50 [1]: 4.94

Structure (SMILES): NC1=NS(=O)(=O)N(Cc2ccc(Cl)cc2)c2nc(-c3ccccc3F)[nH]c21 [drawing 16]
- pIC50 [1]: 5.15

Structure (SMILES): NC1=NS(=O)(=O)N(Cc2ccccc2)c2nc(C3CCCCC3)n(Cc3ccccc3)c21 [drawing 17]
- pIC50 [1]: 4.54

Structure (SMILES): NC1=NS(=O)(=O)N(Cc2ccccc2)c2nc(-c3ccccc3)n(Cc3ccc(Cl)cc3)c21 [drawing 18]
- pIC50 [1]: 5.00

Structure (SMILES): NC1=NS(=O)(=O)Nc2nc(Cc3ccccc3)[nH]c21 [drawing 19]
- PC J774 macrophages (%) (percentage of non-specific cytotoxicity) (J774 murine macrophages; 100 μM compound, 48 hours): 17.6%
- PC J774 macrophages (%) (percentage of non-specific cytotoxicity) (J774 murine macrophages; 200 μM compound, 48 hours): 24.3%
- PC J774 macrophages (%) (percentage of non-specific cytotoxicity) (J774 murine macrophages; 400 μM compound, 48 hours): 29.4%
- pIC50 (J774 murine macrophages; [2]): < 3.40

Structure (SMILES): NC1=NS(=O)(=O)Nc2nc(C3CCCCC3)[nH]c21 [drawing 20]
- PC J774 macrophages (%) (percentage of non-specific cytotoxicity) (J774 murine macrophages; 100 μM compound, 48 hours): 1.4%
- PC J774 macrophages (%) (percentage of non-specific cytotoxicity) (J774 murine macrophages; 200 μM compound, 48 hours): 8.0%
- PC J774 macrophages (%) (percentage of non-specific cytotoxicity) (J774 murine macrophages; 400 μM compound, 48 hours): 11.5%
- pIC50 (J774 murine macrophages; [2]): < 3.40

Structure (SMILES): NC1=NS(=O)(=O)N(Cc2ccc(Cl)cc2)c2nc(-c3ccccc3F)[nH]c21 [drawing 21]
- PC J774 macrophages (%) (percentage of non-specific cytotoxicity) (J774 murine macrophages; 100 μM compound, 48 hours): 100.0%
- PC J774 macrophages (%) (percentage of non-specific cytotoxicity) (J774 murine macrophages; 200 μM compound, 48 hours): 100.0%
- PC J774 macrophages (%) (percentage of non-specific cytotoxicity) (J774 murine macrophages; 400 μM compound, 48 hours): 100.0%
- pIC50 (J774 murine macrophages; [2]): > 4.00

Structure (SMILES): CN1c2nc(-c3ccccc3)[nH]c2C(N)=NS1(=O)=O [drawing 22]
- PC J774 macrophages (%) (percentage of non-specific cytotoxicity) (J774 murine macrophages; 100 μM compound, 48 hours): 22.5%
- PC J774 macrophages (%) (percentage of non-specific cytotoxicity) (J774 murine macrophages; 200 μM compound, 48 hours): 77.5%
- PC J774 macrophages (%) (percentage of non-specific cytotoxicity) (J774 murine macrophages; 400 μM compound, 48 hours): 99.0%
- pIC50 (J774 murine macrophages; [2]): 3.89

Structure (SMILES): NC1=NS(=O)(=O)N(Cc2ccccc2)c2nc(C3CCCCC3)n(Cc3ccccc3)c21 [drawing 23]
- inhibition at 25 µM (cruzipain): 0%
- inhibition at 50 µM (cruzipain): 30%
- inhibition at 100 µM (cruzipain): 58%

Structure (SMILES): NC1=NS(=O)(=O)N(Cc2ccc(Cl)cc2)c2nc(-c3ccccc3F)[nH]c21 [drawing 27]
- inhibition at 25 µM (cruzipain): 7%
- inhibition at 50 µM (cruzipain): 30%
- inhibition at 100 µM (cruzipain): 30%
